The test system of one series is neointima formation. The settings on record: in rats; Brooks E. E. et al., J. Biol. Chem. 1997; cited from earlier work.
In the next series the target is CDK4/Cyclin D (Homo sapiens, UniProt P11802). Kind of series: Assay for Inhibition of CDK4/Cyclin D. As to conditions: 20 ng CDK4, retinoblastoma protein substrate, 25 μM ATP, 25° C. 15 minutes. The series is classed as biochemical. As for the experimental part: (§1) To determine the inhibitory potency and selectivity of compounds of the present invention against CDK4 and related kinases, compounds were evaluated in standard assays routinely used to measure inhibition of cyclin-dependent kinase enzymes and other protein kinases (see for example D. W. Fry et al., J. Biol. Chem. 2001, 276, 16617-16623). The assays were carried out as described below.
Chain of CDK4/Cyclin D (P11802 whole entry, species assumed): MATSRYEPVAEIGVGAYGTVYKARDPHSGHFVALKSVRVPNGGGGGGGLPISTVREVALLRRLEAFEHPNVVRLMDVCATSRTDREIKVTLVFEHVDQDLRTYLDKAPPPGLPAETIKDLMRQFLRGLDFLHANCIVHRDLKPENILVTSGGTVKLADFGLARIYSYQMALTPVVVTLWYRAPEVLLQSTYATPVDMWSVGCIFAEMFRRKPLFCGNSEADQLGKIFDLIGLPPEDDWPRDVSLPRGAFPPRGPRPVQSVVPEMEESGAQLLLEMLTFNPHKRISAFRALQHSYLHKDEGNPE
Chain of CDK4/Cyclin D (P24385 whole entry partner, species assumed): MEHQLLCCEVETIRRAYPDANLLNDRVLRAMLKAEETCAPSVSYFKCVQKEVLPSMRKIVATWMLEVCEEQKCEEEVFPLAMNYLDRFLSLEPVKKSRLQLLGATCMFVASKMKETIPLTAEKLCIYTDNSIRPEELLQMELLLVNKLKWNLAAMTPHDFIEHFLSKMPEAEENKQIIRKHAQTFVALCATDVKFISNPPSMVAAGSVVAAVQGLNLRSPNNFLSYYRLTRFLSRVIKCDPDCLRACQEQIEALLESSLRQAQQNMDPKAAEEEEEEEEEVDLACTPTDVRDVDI
Assay for Inhibition of CDK4/Cyclin D
The CDK4 enzyme assay for IC50 determination and kinetic evaluation is performed as follows. 96-well filter plates (Millipore MADVN6550, Bedford, Mass.) are used. The total volume is 0.1 mL containing buffer A (20 mM TRIS (tris[hydroxymethyl]aminomethane)) (pH 7.4), 50 mM NaCl, 1 mM dithiothreitol, 10 mM MgCl2), 25 μM ATP containing 0.25 μCi [^32P]ATP, 20 ng CDK4, 1 μg retinoblastoma protein and the test compound at appropriate dilutions in buffer A. Buffer A alone without added test compound was employed as a control for no inhibition. Buffer A containing excess EDTA was used to determine the level of background ^32P in the absence of enzyme activity. All components except the ATP are added to the wells, and the plate is placed on a plate mixer for 2 minutes. The reaction is started by adding [^32P]ATP, and the plate is incubated at 25° C. for 15 minutes. The reaction is terminated by addition of 0.1 mL 20% trichloroacetic acid (TCA). The plate is kept at 4° C. for at least 1 hour to allow the substrate to precipitate. The wells are then washed five times with 0.2 mL 10% TCA, and ^32P incorporation is determined with a beta plate counter (Wallac Inc., Gaithersburg, Md.). The IC50 of the test compound was determined using the median effect method (Chou, T-C and Talalay, P. Applications of the median effect principle for the assessment of low-dose risk of carcinogens and for the quantitation of synergism and antagonism of chemotherapeutic agents. In: New Avenues in Developmental Cancer Chemotherapy (Eds. Harrap, K. T. and Connors, T. A.), pp. 37-64. Academic Press, New York, 1987).

For a further series, the target named is CDK2/cyclin A (Homo sapiens, UniProt P24941). Put plainly: Assay for Inhibition of CDK2/Cyclin A. The series is classed as biochemical. As to conditions: 20 ng CDK2/cyclin A, retinoblastoma protein substrate, [32P]ATP, 25° C. 15 minutes. As to the method: as §1
Assay for Inhibition of CDK2/Cyclin A
CDK2 enzyme assays for IC50 determinations and kinetic evaluation are performed as follows. 96-well filter plates (Millipore MADVN6550, Bedford, Mass.) are used. The final assay volume is 0.1 mL containing buffer A (20 mM TRIS (tris[hydroxymethyl]aminomethane) (pH 7.4), 50 mM NaCl, 1 mM dithiothreitol, 10 mM MgCl2), […] ATP containing 0.25 μCi [^32P]ATP, 20 ng CDK2/cyclin A, 1 μg retinoblastoma protein, and the test compound at appropriate dilutions in buffer A (Buffer A alone without added test compound was employed as a control for no inhibition. Buffer A containing excess ethylenediamine tetra acetic acid (EDTA) was used to determine the level of background ^32P in the absence of enzyme activity). All components except the ATP are added to the wells, and the plate is placed on a plate mixer for 2 minutes. The reaction is initiated by addition of [^32P]ATP, and the plate is incubated at 25° C. for 15 minutes. The reaction is terminated by addition of 0.1 mL 20% trichloroacetic acid (TCA). The plate is kept at 4° C. for at least 1 hour to allow the substrate to precipitate. The wells are then washed five times with 0.2 mL 10% TCA, and ^32P incorporation is determined with a beta plate counter (Wallac Inc., Gaithersburg, Md.). The IC50 of the test compound was determined using the median effect method (Chou, T-C and Talalay, P. Applications of the median effect principle for the assessment of low-dose risk of carcinogens and for the quantitation of synergism and antagonism of chemotherapeutic agents. In: New Avenues in Developmental Cancer Chemotherapy (Eds. Harrap, K. T. and Connors, T. A.), pp. 37-64. Academic Press, New York, 1987).

Structures can show the parent of a compound that is named as a salt.

Regarding `COc1ccc(CNc2nc(N(CCO)CCO)nc3c2ncn3C(C)C)cc1` [CVT-313], the “inhibition of neointima formation” value with neointima formation is recorded as “greater than 80%”.

One may read the IC50 as the point on the concentration scale where inhibition reaches its midpoint. As usually defined, the melting point is the temperature, or range, at which the solid turns liquid. Take `CC(C)n1c(=O)ccc2cnc(Nc3cccnc3)nc21` [Example 1, 8-Isopropyl-2-(pyridin-3-ylamino)-8H-pyrido[2,3-d]pyrimidin-7-one]: the melting point is 156 to 158 °C. On CDK4/Cyclin D, the IC50 came to 535 nM. The IC50 at CDK2/cyclin A is 235 nM.

`COc1ccc(Nc2ncc3ccc(=O)n(C4CCCC4)c3n2)cn1` [Example 2, 8-Cyclopentyl-2-(6-methoxy-pyridin-3-ylamino)-8H-pyrido[2,3-d]pyrimidin-7-one] had a melting point of 181 to 182 °C. Also, the IC50 at CDK4/Cyclin D was found to be 82 nM. Further, at CDK2/cyclin A, the IC50 is 29 nM.

For the compound `O=c1c(Br)cc2cnc(Nc3ccc(N4CCNCC4)nc3)nc2n1C1CCCC1` [Example 3, 6-Bromo-8-cyclopentyl-2-(6-piperazin-1-yl-pyridin-3-ylamino)-8H-pyrido[2,3-d]pyrimidin-7-one hydrochloride salt], the IC50 at CDK4/Cyclin D amounted to 12 nM; on CDK2/cyclin A, 190 nM.

On to `Cc1c(Br)c(=O)n(C2CCCC2)c2nc(Nc3ccc(N4CCOCC4)nc3)ncc12` [Example 4, 6-Bromo-8-cyclopentyl-5-methyl-2-(6-morpholin-4-yl-pyridin-3-ylamino)-8H-pyrido[2,3-d]pyrimidin-7-one], for which the melting point was 254 to 256 °C. Further, the 50% inhibitory concentration (IC50) at CDK4/Cyclin D amounted to 99 nM. At CDK2/cyclin A, the IC50 is 1020 nM.

The compound `CC(=O)c1c(C)c2cnc(Nc3ccc(N4CCOCC4)nc3)nc2n(C2CCCC2)c1=O` [Example 5, 6-Acetyl-8-cyclopentyl-5-methyl-2-(6-morpholin-4-yl-pyridin-3-ylamino)-8H-pyrido[2,3-d]pyrimidin-7-one] showed a melting point of 224 to 226 °C.

Take `Cc1c(Br)c(=O)n(C2CCCC2)c2nc(Nc3ccc(N4CCNCC4)nc3)ncc12` [Example 6, 6-Bromo-8-cyclopentyl-5-methyl-2-(6-piperazin-1-yl-pyridin-3-ylamino)-8H-pyrido[2,3-d]pyrimidin-7-one]: the melting point worked out at 290 °C. Also, the IC50 at CDK4/Cyclin D came out at 22 nM. At CDK2/cyclin A, the IC50 came out at 3200 nM.

In turn, `CC(=O)c1c(C)c2cnc(Nc3ccc(N4CCNCC4)nc3)nc2n(C2CCCC2)c1=O` [Example 7, 6-Acetyl-8-cyclopentyl-5-methyl-2-(6-piperazin-1-yl-pyridin-3-ylamino)-8H-pyrido[2,3-d]pyrimidin-7-one] returned a melting point of 125 °C. At CDK4/Cyclin D, the IC50 stood at 3 nM. For the same compound, the 50% inhibitory concentration (IC50) at CDK2/cyclin A was 260 nM.

The values above are taken from patent US20050182078A1, “2-(Pyridin-3-ylamino)-pyrido[2,3-D]pyrimidin-7-ones” (WARNER-LAMBERT COMPANY, LLC, priority 2004, published 2005).
